Reference: patent US10385056B2, “4-substituted pyrrolo[2,3-d]pyrimidine compound and use thereof” (JIANGSU CAREFREE PHARMACEUTICAL CO., LTD, priority 2014, dated 2019)

Key:
JAK3 = biological target: T1, JAK3 (Homo sapiens, UniProt P52333); assay: Caliper Mobility Shift Assay, kinase inhibition; format: biochemical; details: ATP by Km value
T1 sequence (P52333 1-1124): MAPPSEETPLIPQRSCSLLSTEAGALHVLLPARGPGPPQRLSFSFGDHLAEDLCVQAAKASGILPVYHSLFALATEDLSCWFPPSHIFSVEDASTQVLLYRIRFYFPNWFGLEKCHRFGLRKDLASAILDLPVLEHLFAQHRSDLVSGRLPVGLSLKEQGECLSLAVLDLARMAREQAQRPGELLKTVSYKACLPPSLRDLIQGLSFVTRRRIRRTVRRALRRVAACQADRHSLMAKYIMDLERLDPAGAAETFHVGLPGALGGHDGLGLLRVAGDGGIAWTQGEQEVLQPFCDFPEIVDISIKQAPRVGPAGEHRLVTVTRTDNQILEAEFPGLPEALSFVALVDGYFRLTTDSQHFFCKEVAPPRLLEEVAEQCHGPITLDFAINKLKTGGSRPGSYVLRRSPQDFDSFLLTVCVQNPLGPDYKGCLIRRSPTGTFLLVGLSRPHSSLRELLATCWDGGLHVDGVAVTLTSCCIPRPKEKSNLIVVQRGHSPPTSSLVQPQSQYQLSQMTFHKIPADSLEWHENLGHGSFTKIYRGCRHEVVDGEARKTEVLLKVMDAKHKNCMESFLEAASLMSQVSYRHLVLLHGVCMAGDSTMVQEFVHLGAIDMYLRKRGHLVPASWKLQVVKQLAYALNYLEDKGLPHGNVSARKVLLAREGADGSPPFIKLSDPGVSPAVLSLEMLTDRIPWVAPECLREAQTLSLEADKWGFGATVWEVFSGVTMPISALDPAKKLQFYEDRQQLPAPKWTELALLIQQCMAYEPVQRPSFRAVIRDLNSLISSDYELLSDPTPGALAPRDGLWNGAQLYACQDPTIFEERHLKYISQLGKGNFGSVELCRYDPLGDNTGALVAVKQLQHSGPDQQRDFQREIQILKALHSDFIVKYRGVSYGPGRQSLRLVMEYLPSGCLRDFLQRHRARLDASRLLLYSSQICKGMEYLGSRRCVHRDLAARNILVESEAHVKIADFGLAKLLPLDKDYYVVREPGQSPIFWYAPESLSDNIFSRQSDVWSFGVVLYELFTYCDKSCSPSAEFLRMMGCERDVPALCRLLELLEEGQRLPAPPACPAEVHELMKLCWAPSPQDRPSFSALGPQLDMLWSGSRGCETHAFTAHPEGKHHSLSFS

JAK1 = JAK1 (Homo sapiens, UniProt P23458); assay: Caliper Mobility Shift Assay, kinase inhibition; format: biochemical; details: ATP by Km value
Sequence of JAK1 (P23458 whole entry, species assumed): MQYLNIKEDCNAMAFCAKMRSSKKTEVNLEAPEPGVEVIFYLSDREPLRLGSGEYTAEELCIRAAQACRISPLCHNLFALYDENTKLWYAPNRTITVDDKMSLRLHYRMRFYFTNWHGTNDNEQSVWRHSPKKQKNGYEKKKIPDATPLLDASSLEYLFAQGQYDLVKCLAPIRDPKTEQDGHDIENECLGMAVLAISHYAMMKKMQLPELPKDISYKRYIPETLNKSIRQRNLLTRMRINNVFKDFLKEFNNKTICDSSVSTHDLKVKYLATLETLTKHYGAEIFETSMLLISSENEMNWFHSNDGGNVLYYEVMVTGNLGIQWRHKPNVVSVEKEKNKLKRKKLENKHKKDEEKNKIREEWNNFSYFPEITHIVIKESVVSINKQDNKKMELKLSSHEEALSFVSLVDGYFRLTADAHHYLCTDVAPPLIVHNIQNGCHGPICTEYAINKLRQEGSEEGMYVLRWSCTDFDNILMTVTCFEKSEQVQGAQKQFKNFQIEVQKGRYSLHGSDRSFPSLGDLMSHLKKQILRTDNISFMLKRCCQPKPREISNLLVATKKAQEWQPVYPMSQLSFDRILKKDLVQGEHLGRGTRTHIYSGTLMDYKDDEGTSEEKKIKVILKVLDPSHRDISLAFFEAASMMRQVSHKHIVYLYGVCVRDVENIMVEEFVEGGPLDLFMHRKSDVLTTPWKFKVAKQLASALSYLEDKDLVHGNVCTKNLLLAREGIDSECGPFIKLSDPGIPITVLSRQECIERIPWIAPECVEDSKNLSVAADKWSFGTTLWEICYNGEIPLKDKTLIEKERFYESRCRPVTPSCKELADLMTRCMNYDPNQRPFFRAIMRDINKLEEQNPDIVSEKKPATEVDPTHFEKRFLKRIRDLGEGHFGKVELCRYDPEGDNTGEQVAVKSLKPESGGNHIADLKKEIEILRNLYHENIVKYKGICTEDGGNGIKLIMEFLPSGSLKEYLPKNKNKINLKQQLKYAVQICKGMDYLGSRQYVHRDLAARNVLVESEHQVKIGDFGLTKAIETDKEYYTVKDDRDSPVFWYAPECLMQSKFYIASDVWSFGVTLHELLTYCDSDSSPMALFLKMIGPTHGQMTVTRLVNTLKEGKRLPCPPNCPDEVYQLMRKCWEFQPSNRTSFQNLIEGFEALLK

phosphorylated STAT5 = assay: CTLL-2 cells, IL-2 stimulated, Western blot of phosphorylation; format: cell-based; details: Mus musculus, starved 6 h with compound, IL-2 150 U/mL 10 min, phosphorylated STAT5 by Western blot, read-out: IC50 g (nM) STAT5
Method: (§1) Incubating for 10 min and collecting cells. Adding cell lysis buffer for cell lysis. Collecting protein to perform WEST-Blot detection, detecting phosphorylated JAK1, the phosphorylation of JAK2 and the phosphorylated STAT5, and obtaining the IC50 value.

phosphorylation of JAK2 = assay: as above; format: cell-based; details: Mus musculus, starved 6 h with compound, IL-2 150 U/mL 10 min, phosphorylation of JAK2 by Western blot, read-out: IC50 g (nM) JAK2
Method: as §1

phosphorylated JAK1 = assay: as above; format: cell-based; details: Mus musculus, starved 6 h with compound, IL-2 150 U/mL 10 min, phosphorylated JAK1 by Western blot, read-out: IC50 g (nM) JAK1
Method: as §1

JAK2 = JAK2 (Homo sapiens, UniProt O60674); assay: Caliper Mobility Shift Assay, kinase inhibition; format: biochemical; details: ATP by Km value
Sequence of JAK2 (O60674 whole entry, species assumed): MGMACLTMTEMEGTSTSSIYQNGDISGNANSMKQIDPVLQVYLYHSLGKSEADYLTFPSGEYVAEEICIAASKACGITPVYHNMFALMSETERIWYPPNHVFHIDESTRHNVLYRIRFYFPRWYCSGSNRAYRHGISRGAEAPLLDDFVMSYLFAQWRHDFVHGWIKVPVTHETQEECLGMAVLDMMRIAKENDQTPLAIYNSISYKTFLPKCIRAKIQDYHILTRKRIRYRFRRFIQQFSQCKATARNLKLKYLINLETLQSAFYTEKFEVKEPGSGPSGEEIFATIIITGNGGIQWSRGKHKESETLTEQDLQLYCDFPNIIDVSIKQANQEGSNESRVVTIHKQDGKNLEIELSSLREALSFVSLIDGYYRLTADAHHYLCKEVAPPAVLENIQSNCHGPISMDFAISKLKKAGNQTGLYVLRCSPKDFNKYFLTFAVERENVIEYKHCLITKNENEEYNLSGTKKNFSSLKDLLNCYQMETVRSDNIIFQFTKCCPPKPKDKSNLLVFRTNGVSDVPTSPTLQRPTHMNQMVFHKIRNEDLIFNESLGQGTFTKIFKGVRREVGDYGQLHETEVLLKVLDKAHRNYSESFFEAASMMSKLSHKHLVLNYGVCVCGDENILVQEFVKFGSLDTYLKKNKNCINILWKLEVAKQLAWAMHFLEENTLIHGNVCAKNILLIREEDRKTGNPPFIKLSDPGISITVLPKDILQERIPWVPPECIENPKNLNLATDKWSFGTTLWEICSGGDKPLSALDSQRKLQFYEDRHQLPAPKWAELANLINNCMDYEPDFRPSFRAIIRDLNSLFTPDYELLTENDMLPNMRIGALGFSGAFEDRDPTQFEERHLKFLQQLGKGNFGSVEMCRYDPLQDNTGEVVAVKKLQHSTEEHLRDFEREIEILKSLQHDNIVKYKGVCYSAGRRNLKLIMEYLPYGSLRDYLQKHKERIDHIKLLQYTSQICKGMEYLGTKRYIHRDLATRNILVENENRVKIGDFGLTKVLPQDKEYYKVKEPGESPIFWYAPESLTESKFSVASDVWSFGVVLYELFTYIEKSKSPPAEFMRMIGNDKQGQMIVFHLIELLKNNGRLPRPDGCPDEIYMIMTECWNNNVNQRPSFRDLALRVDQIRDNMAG

[1] = test system: rat with rheumatoid arthritis; assay: Collagen-induced rheumatoid arthritis model, arthritis score; format: in vivo; details: DBA/1J rat, bovine Type II collagen/CFA model, intragastric administration, scored 2 weeks after administration, 1-4 scoring method
Method: For the function of the compound inhibiting rheumatoid arthritis, selecting DBA/1J rat, carrying out subcutaneous injection after complete emulsion of 50 ug of bovine Type II collagen and isometric complete Freund's adjuvant (CFA). Strengthening immunization once 21 days after adequate emulsion of 50 ug of same antigen and incomplete Freund's adjuvant (IFA). Starting observation and recording from the 45th day. Using 1-4 scoring method: 1 score, normal; 2 scores, swelling of one joint; 3 scores, swelling of more than one joint but not all joints; 4 scores, severe swelling or stiffness of the whole claw. Adding scores of all claws to obtain the total score of arthritis in rat. Showing successful model establishment when the total joint score of the rat is more than 1. After successfully establishing the model of rat with rheumatoid arthritis, using the compound of the invention to feed the rat by intragastric administration and scoring arthritis of the rat 2 weeks after administration.

N#CCC1(n2cc(-c3ncnc4[nH]ccc34)c3ccccc32)CN(C(=O)[C@@H]2CCCN2)C1 (stereo in doubt) [Example 11, 2-(3-(3-(7H-pyrrole[2,3-d]pyrimidine-4-yl)-1H-indole-1-yl)-1-(pyrrolidine-2-carbonyl)azetidine-3-yl)acetonitrile]
IC50 (JAK3): 521 nM | IC50 (JAK1): 300 nM | IC50 (phosphorylated STAT5): 692 nM | IC50 (phosphorylation of JAK2): 192 nM | IC50 (phosphorylated JAK1): 30 nM | IC50 (JAK2): 692 nM

CCS(=O)(=O)N1CC(CC#N)(n2cc(-c3ncnc4[nH]ccc34)cn2)C1 [Baricitinib, reference compound]
Score of arthritis [1]: 2.4

CCS(=O)(=O)N1CC(CC#N)(n2cc(-c3ncnc4[nH]ccc34)c3ccccc32)C1 [Example 1, 2-(3-(3-(7H-pyrrole[2,3-d]pyrimidine-4-yl)-1H-indole-1-yl)-1-(ethylsulfonyl)azetidine-3-yl)acetonitrile]
IC50 (JAK3): 100 nM | IC50 (JAK1): 11 nM | IC50 (phosphorylated STAT5): 125 nM | IC50 (phosphorylation of JAK2): 18.4 nM | IC50 (phosphorylated JAK1): 26.3 nM | IC50 (JAK2): 1.1 nM

CS(=O)(=O)N1CC(CC#N)(n2cc(-c3ncnc4[nH]ccc34)c3ccccc32)C1 [Example 2, 2-(3-(3-(7H-pyrrole[2,3-d]pyrimidine-4-yl)-1H-indole-1-yl)-1-(methylsulfonyl)azetidine-3-yl)acetonitrile]
IC50 (JAK3): 128 nM | IC50 (JAK1): 8 nM | IC50 (phosphorylated STAT5): 146 nM | IC50 (phosphorylation of JAK2): 5.4 nM | IC50 (JAK2): 0.9 nM

N#CCC1(n2cc(-c3ncnc4[nH]ccc34)c3ccccc32)CN(S(=O)(=O)N2CCCC2)C1 [Example 10]
IC50 (JAK3): 67 nM | IC50 (JAK1): 7 nM | IC50 (JAK2): 3.5 nM

CCS(=O)(=O)N1CC(CC#N)(n2cc(-c3ncnc4[nH]ccc34)c3ccc(Cl)cc32)C1 [Example 26, 2-(1-(ethylsulfonyl)-3-(6-chloro-3-(7H-pyrrole[2,3-d]pyrimidine-4-yl)-1H-indole-1-yl)azetidine-3-yl)acetonitrile]
IC50 (JAK3): 34 nM | IC50 (JAK1): 3.5 nM | IC50 (JAK2): 0.72 nM

CC(C)S(=O)(=O)N1CC(CC#N)(n2cc(-c3ncnc4[nH]ccc34)c3ccc(Cl)cc32)C1 [Example 28, 2-(1-(isopropylsulfonyl)-3-(6-chloro-3-(7H-pyrrole[2,3-d]pyrimidine-4-yl)-1H-indole-1-yl)azetidine-3-yl)acetonitrile]
IC50 (JAK3): 64 nM | IC50 (JAK1): 6.5 nM | IC50 (JAK2): 2.4 nM

CCS(=O)(=O)N1CC(CC#N)(n2cc(-c3ncnc4[nH]ccc34)c3ccc(Br)cc32)C1 [Example 31, 2-(1-(ethylsulfonyl)-3-(6-bromo-3-(7H-pyrrole[2,3-d]pyrimidine-4-yl)-1H-indole-1-yl)azetidine-3-yl)acetonitrile]
IC50 (JAK3): 21 nM | IC50 (JAK1): 3.5 nM | IC50 (JAK2): 8.3 nM

CS(=O)(=O)N1CC(CC#N)(n2cc(-c3ncnc4[nH]ccc34)c3ccc(F)c(F)c32)C1 [Example 32, 2-(1-(methylsulfonyl)-3-(5,6-difluoro-3-(7H-pyrrole[2,3-d]pyrimidine-4-yl)-1H-indole-1-yl)azetidine-3-yl)acetonitrile]
IC50 (JAK3): 124 nM | IC50 (JAK1): 4.5 nM | IC50 (JAK2): 6.3 nM

CCCS(=O)(=O)N1CC(CC#N)(n2cc(-c3ncnc4[nH]ccc34)c3c(F)cc(F)cc32)C1 [Example 43, 2-(1-(propylsulfonyl)-3-(6,8-difluoro-3-(7H-pyrrole[2,3-d]pyrimidine-4-yl)-1H-indole-1-yl)azetidine-3-yl)acetonitrile]
IC50 (JAK3): 67 nM | IC50 (JAK1): 13.3 nM | IC50 (JAK2): 28.4 nM

CCS(=O)(=O)N1CC(CC#N)(n2cc(-c3ncnc4[nH]ccc34)c3cc(F)cc(F)c32)C1 [Example 47, 2-(1-(ethylsulfonyl)-3-(5,7-difluoro-3-(7H-pyrrole[2,3-d]pyrimidine-4-yl)-1H-indole-1-yl)azetidine-3-yl)acetonitrile]
IC50 (JAK3): 58 nM | IC50 (JAK1): 30.5 nM | IC50 (JAK2): 11.6 nM

CCS(=O)(=O)N1CC(CC#N)(n2cc(-c3ncnc4[nH]ccc34)c3c(F)ccc(F)c32)C1 [Example 48, 2-(1-(ethylsulfonyl)-3-(5,8-difluoro-3-(7H-pyrrole[2,3-d]pyrimidine-4-yl)-1H-indole-1-yl)azetidine-3-yl)acetonitrile]
IC50 (JAK3): 72 nM | IC50 (JAK1): 10.5 nM | IC50 (JAK2): 4.6 nM

CCS(=O)(=O)N1CC(CC#N)(n2cc(-c3ncnc4[nH]ccc34)c3ccc(CC#N)cc32)C1 [Example 51, 2-(1-(ethylsulfonyl)-3-(6-ethylcyano-3-(7H-pyrrole[2,3-d]pyrimidine-4-yl)-1H-indole-1-yl)azetidine-3-yl)acetonitrile]
IC50 (JAK3): 172 nM | IC50 (JAK1): 45.5 nM | IC50 (JAK2): 41.6 nM

CCS(=O)(=O)N1CC(CC#N)(n2cc(-c3ncnc4[nH]ccc34)c3ccc(CC(F)(F)F)cc32)C1 [Example 53, 2-(1-(ethylsulfonyl)-3-(6-trifluoroethyl-3-(7H-pyrrole[2,3-d]pyrimidine-4-yl)-1H-indole-1-yl)azetidine-3-yl)acetonitrile]
IC50 (JAK3): 17 nM | IC50 (JAK1): 5.4 nM | IC50 (JAK2): 1.4 nM

CCS(=O)(=O)N1CC(CC#N)(n2cc(-c3ncnc4[nH]ccc34)c3ccc(C)cc32)C1 [Example 54, 2-(1-(ethylsulfonyl)-3-(6-methyl-3-(7H-pyrrole[2,3-d]pyrimidine-4-yl)-1H-indole-1-yl)azetidine-3-yl)acetonitrile]
IC50 (JAK3): 36 nM | IC50 (JAK1): 15.2 nM | IC50 (JAK2): 2.5 nM

CCOc1ccc2c(-c3ncnc4[nH]ccc34)cn(C3(CC#N)CN(S(=O)(=O)CC)C3)c2c1 [Example 59, 2-(1-(ethylsulfonyl)-3-(6-ethoxyl-3-(7H-pyrrole[2,3-d]pyrimidine-4-yl)-1H-indole-1-yl)azetidine-3-yl)acetonitrile]
IC50 (JAK3): 90 nM | IC50 (JAK1): 25.4 nM | IC50 (JAK2): 2.8 nM

CCS(=O)(=O)N1CC(CC#N)(n2cc(-c3ncnc4[nH]ccc34)c3cc(F)ccc32)C1 [Example 62, 2-(1-(ethylsulfonyl)-3-(5-fluoro-3-(7H-pyrrole[2,3-d]pyrimidine-4-yl)-1H-indole-1-yl)azetidine-3-yl)acetonitrile]
IC50 (JAK3): 30 nM | IC50 (JAK1): 3.6 nM | IC50 (phosphorylated STAT5): 130 nM | IC50 (phosphorylation of JAK2): 29.9 nM | IC50 (phosphorylated JAK1): 33.9 nM | IC50 (JAK2): 1 nM

CCS(=O)(=O)N1CC(CC#N)(n2cc(-c3ncnc4[nH]ccc34)c3cc(C(F)(F)F)ccc32)C1 [Example 63, 2-(1-(ethylsulfonyl)-3-(5-trifluoromethyl-3-(7H-pyrrole[2,3-d]pyrimidine-4-yl)-1H-indole-1-yl)azetidine-3-yl)acetonitrile]
IC50 (JAK3): 232 nM | IC50 (JAK1): 7.9 nM | IC50 (phosphorylated STAT5): 196 nM | IC50 (phosphorylation of JAK2): 38.3 nM | IC50 (phosphorylated JAK1): 75.2 nM | IC50 (JAK2): 2.4 nM
